PMC5114424, “The Role of Folate Transport in Antifolate Drug Action in Trypanosoma brucei” (The Journal of Biological Chemistry, 2016)

How the values were obtained:
Format in all cases: cell-based, Trypanosoma brucei brucei
[1] = tested on: T1, FT1–3 (TbFT1–3); test: inhibition of [3H]folate uptake, whole cells; conditions: 2.0 μM folate ([S] ≅ Km); pH 7.3; read-out: IC50 against folate
T1 construct: native transporters in intact bloodstream-form trypanosomes; 12 predicted transmembrane helices; uptake assigned by RNAi knockdown of all three
Text: inhibition of [3H]folate uptake, whole cells on FT1–3 (TbFT1–3)

[2] = tested on: T1, FT1–3 (TbFT1–3); test: [3H]folic acid uptake, whole cells; conditions: transport, 23 °C, pH 7.3; labelled compound
Text: [3H]folic acid uptake, whole cells on FT1–3 (TbFT1–3) | Uptake rates for folate obeyed simple Michaelis-Menten kinetics (Fig. 2D) yielding a Km of […]

[3] = tested on: T1, FT1–3 (TbFT1–3); test: inhibition of [3H]MTX uptake, whole cells; conditions: 13 μM MTX ([S] ≅ Km); pH 7.3; read-out: IC50 against MTX
Text: inhibition of [3H]MTX uptake, whole cells on FT1–3 (TbFT1–3)

[4] = tested on: T1, FT1–3 (TbFT1–3); test: inhibition of [3H]MTX uptake, whole cells, Lineweaver-Burk / global fit; conditions: competitive with MTX; folate 0, 0.5, 1 μM; pH 7.3
[5] = tested on: T1, FT1–3 (TbFT1–3); test: [3H]MTX uptake, whole cells; conditions: transport, 23 °C, pH 7.3; labelled compound
[6] = tested on: T1, FT1–3 (TbFT1–3); test: inhibition of [3H]folate uptake, whole cells, Lineweaver-Burk / global fit; conditions: competitive with folate; MTX 0, 0.5, 1 μM; pH 7.3

SMILES | IC50 [1] | further results
CN1c2c(nc(N)[nH]c2=O)NC[C@@H]1CNc1ccc(C(=O)N[C@@H](CCC(=O)O)C(=O)O)cc1 [5-methyl-THF] | 6300 ± 1000 nM | 
Nc1nc2ncc(CNc3ccc(C(=O)N[C@@H](CCC(=O)O)C(=O)O)cc3)nc2c(=O)[nH]1 [folate] |  | Km [2]: 2.04 ± 0.53 µM; IC50 [3]: 1900 ± 400 nM; Ki [4]: 940 ± 210 nM
CN(Cc1cnc2nc(N)nc(N)c2n1)c1ccc(C(=O)N[C@@H](CCC(=O)O)C(=O)O)cc1 [methotrexate] | 3400 ± 400 nM | Km [5]: 18.4 ± 2.2 µM; Ki [6]: 480 ± 70 nM
Nc1ccc(C(=O)N[C@@H](CCC(=O)O)C(=O)O)cc1 [pABA-Glu] | 30800 ± 3700 nM | 
Nc1nc(=O)c2c(CCc3ccc(C(=O)N[C@@H](CCC(=O)O)C(=O)O)cc3)c[nH]c2[nH]1 [pemetrexed] | 3200 ± 300 nM | 
Cc1nc2ccc(CN(C)c3ccc(C(=O)N[C@@H](CCC(=O)O)C(=O)O)s3)cc2c(=O)[nH]1 [raltitrexed] | 1800 ± 400 nM | 
